Legend:
[1] = biological target: Mouse NKA α3β1 (Mus musculus, UniProt Q6PIC6); assay: NKA ATPase activity inhibition, dose response; format: biochemical
[2] = biological target: NKA α1 purified from pig kidney (outer medulla) (Sus scrofa, UniProt P05024); assay: SPR; format: binding

IC50 [1]: 18.6 µM | Kd [2]: 4.2 µM
Compound: C=Cc1cccc2c1N(C)Cc1cc3c(cc1-2)OCO3 [HLY72]
